System: convulsions in animal models of medically refractory epilepsy
Test: rodent models of medically refractory epilepsy (FIG. 12)
Type: in vivo
Conditions: multiple rodent models

CCC1(c2ccccc2)CCNC1=O (racemic) [3-ethyl-3-phenylpyrrolidin-2-one]
activity in preventing convulsions in animal models of medically refractory epilepsy: active

From patent US12357610B2, “Aryl-substituted acetamide and pyrrolidin-2-one derivatives and their use for the treatment of seizures” (University of Houston System, priority 2017, dated 2025)
